Results as given in patent US8575158B2, “1-phenyl-substituted heterocyclyl derivatives and their use as prostaglandin D2 receptor modulators” (Actelion Pharmaceuticals Ltd., priority 2010, dated 2013).

Molecular target: T1, hCRTH2 receptor (Homo sapiens, UniProt Q9Y5Y4)
T1 construct: expressed in transfected cells; host or cells: HEK293
T1 sequence (Q9Y5Y4 1-395): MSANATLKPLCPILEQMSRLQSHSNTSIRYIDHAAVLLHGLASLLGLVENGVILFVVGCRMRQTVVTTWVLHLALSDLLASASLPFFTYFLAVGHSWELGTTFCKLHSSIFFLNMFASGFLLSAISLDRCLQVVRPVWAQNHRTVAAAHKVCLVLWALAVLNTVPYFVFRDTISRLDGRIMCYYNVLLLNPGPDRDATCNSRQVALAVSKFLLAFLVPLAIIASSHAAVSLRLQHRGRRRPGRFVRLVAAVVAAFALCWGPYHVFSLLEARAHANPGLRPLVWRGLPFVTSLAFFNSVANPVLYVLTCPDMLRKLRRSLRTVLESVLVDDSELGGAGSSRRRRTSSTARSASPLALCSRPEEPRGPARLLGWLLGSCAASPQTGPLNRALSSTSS
Assay: Radioligand displacement assay (3H-PGD2) on hCRTH2 receptor membranes
Type: binding
Conditions: antagonistic activity
Method: First, recombinant HEK293-hCRTH2 cells were detached from culture plates into 5 ml buffer A/plate (Buffer A: 5 mM Tris, 1 mM MgCl2-6H2O pH=7.4) using a rubber policeman. Cells were then transferred into centrifugation tubes and centrifuged for 5 min at 400 g. The cell pellet was resuspended in the same buffer and tubes were frozen at −80° C. Cells were thawed and membrane fragments were generated by homogenization using a polytron homogenizer (30 seconds). The membrane fragments were then centrifuged at 3000 g for 20 minutes and resuspended in buffer C (Buffer C: 75 mM Tris, 25 mM MgCl2, 250 mM Saccharose pH 7.4). Aliquots of membrane fragments were stored at −20° C.
Binding assay was performed in a final assay volume of 250 μl. First, 25 μl of test compound, previously diluted in Binding-Buffer (Binding-Buffer: 50 mM Tris-Base, 100 mM NaCl, 1 mM EDTA, 0.1% BSA (protease free), 0.01% NaN3, 10 mM MnCl2, pH 7.0) was placed into each well. After addition of 75 μl Binding-Buffer, 50 μl of the radioligand ^3H-PGD2 (at 2.5 nM (220.000 dpm/well) from ANAWA ART0662) was added to each well. Binding assay was started by addition of 100 μl CRTH2 membrane fragments, reaching a final concentration of 20 μg/well. For non-specific binding, PGD2 was added to the reaction mixture to […] final concentration.
This assay mix was incubated for 90 minutes at room temperature and then filtered through a GF/C filter 96-well plate which was pre-soaked for 3 hours in 0.5% polyethyleneimine (PEI). The filter-wells were washed three times with ice cold Binding-Buffer. Then, 40 μl of Microscint-40 (Packard) was added to each well and the retained radioactivity quantified in a Topcount (Packard).

[1] = 3H-PGD2 displacement on HEK293-hCRTH2 membrane fragments

Compound: O=C(O)COc1ccc(Cl)cc1C1c2ccc(F)cc2CCN1C(=O)C1CC1c1ccccc1Cl (mixture of isomers) [Example 430, (±)-(4-Chloro-2-{2-[2-(trans-2-chloro-phenyl)-cyclopropanecarbonyl]-6-fluoro-1,2,3,4-tetrahydro-isoquinolin-1-yl}-phenoxy)-acetic acid]
- IC50 (3H-PGD2 radioligand displacement, HEK293-hCRTH2 membranes): 0.00937 µM

Compound: O=C(O)COc1ccc(F)cc1C1c2ccccc2CCN1C(=O)OCc1ccccc1 (racemic) [Example 1, (±)-1-(2-Carboxymethoxy-5-fluoro-phenyl)-3,4-dihydro-1H-isoquinoline-2-carboxylic acid benzyl ester]
- IC50 [1]: 0.0076 µM

Compound: Cc1ccc(OCC(=O)O)c(C2c3ccccc3CCN2C(=O)OCc2ccccc2)c1 (racemic) [Example 3, (±)-1-(2-Carboxymethoxy-5-methyl-phenyl)-3,4-dihydro-1H-isoquinoline-2-carboxylic acid benzyl ester]
- IC50 [1]: 0.0627 µM

Compound: O=C(O)COc1ccc(Br)cc1C1c2ccccc2CCN1C(=O)OCc1ccccc1 (racemic) [Example 4, (±)-1-(5-Bromo-2-carboxymethoxy-phenyl)-3,4-dihydro-1H-isoquinoline-2-carboxylic acid benzyl ester]
- IC50 [1]: 0.0105 µM

Compound: O=C(O)COc1ccc(F)cc1C1c2cc(Br)ccc2CCN1C(=O)OCc1ccccc1 (racemic) [Example 5, (±)-7-Bromo-1-(2-carboxymethoxy-5-fluoro-phenyl)-3,4-dihydro-1H-isoquinoline-2-carboxylic acid benzyl ester]
- IC50 [1]: 0.0812 µM

Compound: O=C(O)COc1cc(F)c(F)cc1C1c2ccccc2CCN1C(=O)OCc1ccccc1 (racemic) [Example 6, (±)-1-(2-Carboxymethoxy-4,5-difluoro-phenyl)-3,4-dihydro-1H-isoquinoline-2-carboxylic acid benzyl ester]
- IC50 [1]: 0.0301 µM

Compound: O=C(O)COc1ccc(F)cc1C1c2cccc(Br)c2CCN1C(=O)OCc1ccccc1 (racemic) [Example 7, (±)-5-Bromo-1-(2-carboxymethoxy-5-fluoro-phenyl)-3,4-dihydro-1H-isoquinoline-2-carboxylic acid benzyl ester]
- IC50 [1]: 0.0079 µM

Compound: O=C(O)COc1ccc(F)cc1C1c2cc(F)c(F)cc2CCN1C(=O)OCc1ccccc1 (racemic) [Example 9, (±)-1-(2-Carboxymethoxy-5-fluoro-phenyl)-6,7-difluoro-3,4-dihydro-1H-isoquinoline-2-carboxylic acid benzyl ester]
- IC50 [1]: 0.0355 µM

Compound: O=C(O)COc1ccc(Br)cc1C1c2cc(F)c(F)cc2CCN1C(=O)OCc1ccccc1 (racemic) [Example 10, (±)-1-(5-Bromo-2-carboxymethoxy-phenyl)-6,7-difluoro-3,4-dihydro-1H-isoquinoline-2-carboxylic acid benzyl ester]
- IC50 [1]: 0.074 µM

Compound: N#Cc1ccc(OCC(=O)O)c(C2c3cc(F)c(F)cc3CCN2C(=O)OCc2ccccc2)c1 (racemic) [Example 11, (±)-1-(2-Carboxymethoxy-5-cyano-phenyl)-6,7-difluoro-3,4-dihydro-1H-isoquinoline-2-carboxylic acid benzyl ester]
- IC50 [1]: 0.0133 µM

Compound: O=C(O)COc1ccc(F)cc1C1c2cccc(C(F)(F)F)c2CCN1C(=O)OCc1ccccc1 (racemic) [Example 12, (±)-1-(2-Carboxymethoxy-5-fluoro-phenyl)-5-trifluoromethyl-3,4-dihydro-1H-isoquinoline-2-carboxylic acid benzyl ester]
- IC50 [1]: 0.00459 µM

Compound: O=C(O)COc1ccc(F)cc1C1c2ccc(F)c(F)c2CCN1C(=O)OCc1ccccc1 (racemic) [Example 14, (±)-1-(2-Carboxymethoxy-5-fluoro-phenyl)-5,6-difluoro-3,4-dihydro-1H-isoquinoline-2-carboxylic acid benzyl ester]
- IC50 [1]: 0.0188 µM

Compound: O=C(O)COc1ccc(Cl)cc1C1c2ccc(F)c(F)c2CCN1C(=O)OCc1ccccc1 (racemic) [Example 15, (±)-1-(2-Carboxymethoxy-5-chloro-phenyl)-5,6-difluoro-3,4-dihydro-1H-isoquinoline-2-carboxylic acid benzyl ester]
- IC50 [1]: 0.0101 µM

Compound: N#Cc1ccc(OCC(=O)O)c(C2c3ccc(F)c(F)c3CCN2C(=O)OCc2ccccc2)c1 (racemic) [Example 16, (±)-1-(2-Carboxymethoxy-5-cyano-phenyl)-5,6-difluoro-3,4-dihydro-1H-isoquinoline-2-carboxylic acid benzyl ester]
- IC50 [1]: 0.00434 µM

Compound: CN(C)S(=O)(=O)c1ccc(OCC(=O)O)c(C2c3ccccc3CCN2C(=O)OCc2ccccc2)c1 (racemic) [Example 17, (±)-1-(2-Carboxymethoxy-5-dimethylsulfamoyl-phenyl)-3,4-dihydro-1H-isoquinoline-2-carboxylic acid benzyl ester]
- IC50 [1]: 0.889 µM

Compound: O=C(O)COc1ccc(Cl)cc1C1c2cccc(F)c2CCN1C(=O)OCc1ccccc1 (racemic) [Example 18, (±)-1-(2-Carboxymethoxy-5-chloro-phenyl)-5-fluoro-3,4-dihydro-1H-isoquinoline-2-carboxylic acid benzyl ester]
- IC50 [1]: 0.00543 µM

Compound: N#Cc1ccc(OCC(=O)O)c(C2c3cccc(F)c3CCN2C(=O)OCc2ccccc2)c1 (racemic) [Example 19, (±)-1-(2-Carboxymethoxy-5-cyano-phenyl)-5-fluoro-3,4-dihydro-1H-isoquinoline-2-carboxylic acid benzyl ester]
- IC50 [1]: 0.00938 µM

Compound: O=C(O)COc1ccc(C(F)(F)F)cc1C1c2ccccc2CCN1C(=O)OCc1ccccc1 (racemic) [Example 20, (±)-1-(2-Carboxymethoxy-5-trifluoromethyl-phenyl)-3,4-dihydro-1H-isoquinoline-2-carboxylic acid benzyl ester]
- IC50 [1]: 0.0507 µM

Compound: O=C(O)COc1ccc(Cl)cc1C1c2ccccc2CCN1C(=O)OCc1ccccc1 (racemic) [Example 21, (±)-1-(2-Carboxymethoxy-5-chloro-phenyl)-3,4-dihydro-1H-isoquinoline-2-carboxylic acid benzyl ester]
- IC50 [1]: 0.00687 µM

Compound: CC(C)c1ccc(OCC(=O)O)c(C2c3ccccc3CCN2C(=O)OCc2ccccc2)c1 (racemic) [Example 22, (±)-1-(2-Carboxymethoxy-5-isopropyl-phenyl)-3,4-dihydro-1H-isoquinoline-2-carboxylic acid benzyl ester]
- IC50 [1]: 0.483 µM

Compound: O=C(O)COc1cc2c(cc1C1c3ccccc3CCN1C(=O)OCc1ccccc1)OCO2 (racemic) [Example 23, (±)-1-(6-Carboxymethoxy-benzo[1,3]dioxol-5-yl)-3,4-dihydro-1H-isoquinoline-2-carboxylic acid benzyl ester]
- IC50 [1]: 0.227 µM

Compound: COc1ccc(OCC(=O)O)c(C2c3ccccc3CCN2C(=O)OCc2ccccc2)c1 (racemic) [Example 24, (±)-1-(2-Carboxymethoxy-5-methoxy-phenyl)-3,4-dihydro-1H-isoquinoline-2-carboxylic acid benzyl ester]
- IC50 [1]: 0.0837 µM

Compound: O=C(O)COc1c(F)cc(F)cc1C1c2ccccc2CCN1C(=O)OCc1ccccc1 (racemic) [Example 33, (±)-1-(2-Carboxymethoxy-3,5-difluoro-phenyl)-3,4-dihydro-1H-isoquinoline-2-carboxylic acid benzyl ester]
- IC50 [1]: 0.196 µM

Compound: O=C(O)COc1ccc(F)cc1C1c2cccc(F)c2CCN1C(=O)OCc1ccccc1 (racemic) [Example 34, (±)-1-(2-Carboxymethoxy-5-fluoro-phenyl)-5-fluoro-3,4-dihydro-1H-isoquinoline-2-carboxylic acid benzyl ester]
- IC50 [1]: 0.00722 µM

Compound: COc1cccc2c1CCN(C(=O)OCc1ccccc1)C2c1cc(F)ccc1OCC(=O)O (racemic) [Example 35, (±)-1-(2-Carboxymethoxy-5-fluoro-phenyl)-5-methoxy-3,4-dihydro-1H-isoquinoline-2-carboxylic acid benzyl ester]
- IC50 [1]: 0.0197 µM

Compound: COc1cc2c(cc1OC)C(c1cc(F)ccc1OCC(=O)O)N(C(=O)OCc1ccccc1)CC2 (racemic) [Example 36, (±)-1-(2-Carboxymethoxy-5-fluoro-phenyl)-6,7-dimethoxy-3,4-dihydro-1H-isoquinoline-2-carboxylic acid benzyl ester]
- IC50 [1]: 0.0571 µM

Compound: COc1ccc2c(c1)C(c1cc(F)ccc1OCC(=O)O)N(C(=O)OCc1ccccc1)CC2 (racemic) [Example 37, (±)-1-(2-Carboxymethoxy-5-fluoro-phenyl)-7-methoxy-3,4-dihydro-1H-isoquinoline-2-carboxylic acid benzyl ester]
- IC50 [1]: 0.0199 µM
